Laboratory results: patent US12208079B2, “Enantiomers of A2-73, analogues, and sigma agonist activity” (Anavex Life Sciences Corp., priority 2015, dated 2025)

Legend:
muscarinic M1 receptors [1] = experiment: Isolated organ bioassay, test for agonist activity, field-stimulated rabbit vas deferens; assay type: biochemical; details: for Effect on twitch contraction amplitude (in words): untreated field-stimulated tissues
Method: (§1) Prostatic segments of rabbit vas deferens were suspended in 20-ml organ baths containing an oxygenated (95% O2 and 5% CO2) and pre-warmed (30° C.) physiological salt solution of the following composition (in mM): NaCl 118.0, KCl 4.7, MgSO4 0.6, CaCl2) 2.5, KH2PO4 1.2, NaHCO325 and glucose 11.0 (pH 7.4).
(§2) Yohimbine (1 μM) and naloxone (1 μM) were also present throughout the experiments to block the α2-adrenergic and opioid receptors, respectively.
(§3) The tissues were connected to force transducers for isometric tension recordings. They were stretched to a resting tension of 1 g then allowed to equilibrate for 60 min during which time they were washed repeatedly and the tension readjusted. Thereafter, they were stimulated electrically with square wave pulses (submaximal intensity, 1 msec duration, 0.1 Hz) delivered by a constant current stimulator.
The tissues were exposed to a submaximal concentration of the reference agonist McN-A-343 (1 μM) to verify responsiveness and to obtain a control response. Following washings and recovery of the initial twitch contractions, the tissues were exposed to the test compounds or the same agonist which were left in contact with the tissues until a stable response was obtained or for a maximum of 15 min.
(§4) The parameter measured was the maximum change in the amplitude of the electrically-evoked contractions induced by the compounds.
(§5) The results are expressed as a percent of the control response to McN-A-343 (mean values).

σ2 = target: T1, σ2 (Rattus norvegicus, UniProt Q5U3Y7); experiment: σ2 receptor binding assay, [3H]DTG (+ 300 nM (+)pentazocine); details: for % of Control Specific Binding, 1st / % of Control Specific Binding, 2nd / % of Control Specific Binding, Mean: 1.0E−06 M; for % of Control Specific Binding, 1st: 1st individual value; for % of Control Specific Binding, 2nd: 2nd individual value; for % Inhibition of Control Specific Binding: test concentration 1.0E−06 M
T1 sequence (Q5U3Y7 1-176): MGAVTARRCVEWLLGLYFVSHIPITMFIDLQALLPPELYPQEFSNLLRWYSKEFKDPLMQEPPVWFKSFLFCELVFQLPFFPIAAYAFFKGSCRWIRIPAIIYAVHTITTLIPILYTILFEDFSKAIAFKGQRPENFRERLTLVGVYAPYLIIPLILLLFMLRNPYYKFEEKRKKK
Source text: (§6) The specific ligand binding to the receptors is defined as the difference between the total binding and the nonspecific binding determined in the presence of an excess of unlabelled ligand.
(§7) The results are expressed as a percent of control specific binding and as a percent inhibition of control specific binding obtained in the presence of the test compounds. Individual and mean values are presented in the results section.
(§8) The IC50 values (concentration causing a half-maximal inhibition of control specific binding) and Hill coefficients (nH) were determined by non-linear regression analysis of the competition curves using Hill equation curve fitting. The inhibition constants (Ki) were calculated from the Cheng Prusoff equation (Ki=IC50/(1+(L/KD)), where L=concentration of radioligand in the assay, and KD=affinity of the radioligand for the receptor).

σ1 (h) = σ1 (h) (Homo sapiens, UniProt Q99720); experiment: σ1 (h) receptor binding assay, [3H](+)pentazocine; details: hydrochloride; for % of Control Specific Binding, 1st / % of Control Specific Binding, 2nd / % of Control Specific Binding, Mean: 1.0E−06 M; for % of Control Specific Binding, 1st: 1st individual value; for % of Control Specific Binding, 2nd: 2nd individual value; for % Inhibition of Control Specific Binding: test concentration 1.0E−06 M
σ1 (h), sequence (Q99720 whole entry): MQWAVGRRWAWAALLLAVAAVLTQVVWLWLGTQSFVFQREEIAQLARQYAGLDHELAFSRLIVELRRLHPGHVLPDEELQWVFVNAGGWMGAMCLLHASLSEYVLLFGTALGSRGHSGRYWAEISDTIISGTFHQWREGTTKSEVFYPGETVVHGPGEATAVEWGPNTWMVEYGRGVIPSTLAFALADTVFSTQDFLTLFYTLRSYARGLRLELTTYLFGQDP
Source text: as §6, §7, §8

muscarinic M1 receptors [2] = experiment: Isolated organ bioassay, test for antagonist activity, field-stimulated rabbit vas deferens; assay type: biochemical; details: for Response to McN-A-343 (1.0E−06M) in the presence of the compound, percent of the control response: mean, n=2; for Behaviour at the M1 receptors (conclusion): rabbit vas deferens
Method: as §1, §2, §3
The tissues were exposed to a submaximal concentration of the reference agonist McN-A-343 (1 μM) to obtain a control response.
If it occurred, a recovery of the twitch contraction amplitude by the test compounds indicated an antagonist activity at the M1 receptors.
as §4, §5

[3] = Neuroprotection against oxidative (anoxic) stress, balloon ascent (Example 2); assay type: in vivo; details: 10 mgs oral daily for 5 days before ascent to 6,000 meters without oxygen assist
Source text: A person balloonist, anticipating anoxic stress, is orally administered 10 mgs of oral ⊖Anevex2-73 substantially free of Anavex2-73 ? daily for 5 days preceding a balloon ascent.

[4] = Treatment of Alzheimer's patients (Examples 1 and 5); assay type: in vivo
Method: A person diagnosed with early stage Alzheimer's dementia is treated with 10 mg of ⊖Anevex2-73 substantially free of Anavex2-73 ? , once per week for three years.
A patient is diagnosed with AD and treated with 10 mg of ⊖Anevex2-73 substantially free of Anavex2-73 ? daily for 3 yrs.

[5] = Neuroprotection in stroke patient (Example 4); assay type: in vivo; details: person, ischemic event of middle cerebral artery, 1 mg i.v.
Method: A person enters the emergency room and is diagnosed with an ischemic event involving the middle cerebral artery, with symptomatology onset being less than 1 hr. Immediately, the patient is administered an i.v. supplemented with 1 mg of ⊖Anevex2-73 substantially free of Anavex2-73 ? while blood supply to the restricted area is restored.

[6] = in vivo, po

Compound | Effect on twitch contraction amplitude (in words) (muscarinic M1 receptors [1]) | % of Control Specific Binding, 1st (σ2; hydrochloride) | % of Control Specific Binding, 2nd (σ2; hydrochloride) | % of Control Specific Binding, Mean (σ2; hydrochloride) | % of Control Specific Binding, 1st (σ1 (h)) | % of Control Specific Binding, 2nd (σ1 (h)) | % of Control Specific Binding, Mean (σ1 (h)) | % Inhibition of Control Specific Binding (σ1 (h)) | Behaviour at the M1 receptors (conclusion) (muscarinic M1 receptors [2]) | % Inhibition of Control Specific Binding (σ2; hydrochloride) | other results
CN(C)CC1COC(c2ccccc2)(c2ccccc2)C1.Cl (single isomer, unassigned; (+)) [(+) A1-41, tetrahydro-N,N-dimethyl-5,5-diphenyl-3-furanmethanamine hydrochloride] | did not decrease the twitch contraction amplitude but caused a slight to moderate increase | 60.0% | 56.8% | 58.4% | 35.0% | 32.9% | 34.0% | 66% | behave as antagonists at the M1 receptors |  | Response to the compound (decrease in twitch contraction amplitude), percent of the control response to McN-A-343 (muscarinic M1 receptors [1]; compound 1.0E−05M, mean, n=2, listed as (+) AE 14, hydrochloride): −31%; Response to the compound (decrease in twitch contraction amplitude), percent of the control response to McN-A-343 (muscarinic M1 receptors [1]; compound 1.0E−06M, mean, n=2, listed as (+) AE 14, hydrochloride): −16%; % Inhibition of Control Specific Binding (σ2; listed as (+) A1-14, hydrochloride): 42%; Response to McN-A-343 (1.0E−06M) in the presence of the compound, percent of the control response (muscarinic M1 receptors [2]; compound 1.0E−05M, listed as (+) AE 14, hydrochloride): 1%; Response to McN-A-343 (1.0E−06M) in the presence of the compound, percent of the control response (muscarinic M1 receptors [2]; compound 1.0E−06M, listed as (+) AE 14, hydrochloride): 13%
CN(C)CC1CCOC1(c1ccccc1)c1ccccc1.Cl (single isomer, unassigned; (+)) [(+) A2-73, tetrahydro-N,N-dimethyl-2,2-diphenyl-3-furanmethanamine hydrochloride] |  | 88.9% | 83.2% | 86.1% | 81.5% | 81.1% | 81.3% | 19% |  | 14% | 
CN(C)CC1COC(c2ccccc2)(c2ccccc2)C1.Cl (single isomer, unassigned; (-)) [(−) A1-41, tetrahydro-N,N-dimethyl-5,5-diphenyl-3-furanmethanamine hydrochloride] | did not decrease the twitch contraction amplitude but caused a slight to moderate increase | 41.0% | 40.3% | 40.7% | 35.7% | 33.3% | 34.5% | 65% | behave as antagonists at the M1 receptors |  | Response to the compound (decrease in twitch contraction amplitude), percent of the control response to McN-A-343 (muscarinic M1 receptors [1]; compound 1.0E−05M, mean, n=2, listed as (−) AE 14, hydrochloride): −8%; Response to the compound (decrease in twitch contraction amplitude), percent of the control response to McN-A-343 (muscarinic M1 receptors [1]; compound 1.0E−06M, mean, n=2, listed as (−) AE 14, hydrochloride): −5%; % Inhibition of Control Specific Binding (σ2; listed as (−) A1-14, hydrochloride): 59%; Response to McN-A-343 (1.0E−06M) in the presence of the compound, percent of the control response (muscarinic M1 receptors [2]; compound 1.0E−05M, listed as (−) AE 14, hydrochloride): 9%; Response to McN-A-343 (1.0E−06M) in the presence of the compound, percent of the control response (muscarinic M1 receptors [2]; compound 1.0E−06M, listed as (−) AE 14, hydrochloride): 20%
CN(C)CC1CCOC1(c1ccccc1)c1ccccc1.Cl (single isomer, unassigned; (-)) [(−) A2-73, tetrahydro-N,N-dimethyl-2,2-diphenyl-3-furanmethanamine hydrochloride] | did not decrease the twitch contraction amplitude but caused a slight to moderate increase | 126.1% | 100.6% | 113.4% | 50.7% | 50.0% | 50.4% | 50% | behave as antagonists at the M1 receptors | −13% | Response to the compound (decrease in twitch contraction amplitude), percent of the control response to McN-A-343 (muscarinic M1 receptors [1]; compound 1.0E−05M, mean, n=2): −20%; Response to the compound (decrease in twitch contraction amplitude), percent of the control response to McN-A-343 (muscarinic M1 receptors [1]; compound 5.0E−05M, mean, n=2): −33%; Anoxic damage [3]: suffers no anoxic damage; Response to McN-A-343 (1.0E−06M) in the presence of the compound, percent of the control response (muscarinic M1 receptors [2]; compound 1.0E−05M): 16%; Response to McN-A-343 (1.0E−06M) in the presence of the compound, percent of the control response (muscarinic M1 receptors [2]; compound 5.0E-05M): −1%; Cognitive score ([4]; person with AD, 10 mg daily for 3 yrs): stabilizes and then increases slowly and regularly; Brain content in amyloid peptide oligomers on autopsy ([4]; person, 10 mg once per week for three years): very low content in amyloid peptide oligomers; Mental function tested quarterly ([4]; person, early stage Alzheimer's dementia, 10 mg once per week for three years): does not decrease over the period; CT/MRI imaging of the affected region [5]: no signs of lesioning in the affected region; Daily testing of cognitive and motor systems [5]: no deficits in physical or mental capacities; Damage after neurotoxin exposure [6]: suffers no damage
C[N+](C)(C)CC#CCOC(=O)Nc1cccc(Cl)c1.[Cl-] [McN-A-343, reference compound] | concentration-dependent decrease in the twitch contraction amplitude |  |  |  |  |  |  |  |  |  | Response to the compound + pirenzepine, percent of the control response to McN-A-343 (muscarinic M1 receptors [1]; + pirenzepine (1.0E−07M), mean, n=2): −5%; Response to the compound (decrease in twitch contraction amplitude), percent of the control response to McN-A-343 (muscarinic M1 receptors [1]; compound 1.0E−06M, mean, n=2): 99%; Response to the compound (decrease in twitch contraction amplitude), percent of the control response to McN-A-343 (muscarinic M1 receptors [1]; compound 1.0E−07M, mean, n=2): 29%; Response to the compound (decrease in twitch contraction amplitude), percent of the control response to McN-A-343 (muscarinic M1 receptors [1]; compound 3.0E−07M, mean, n=2): 67%
